Tests used:
[1] = The compound was tested for antitumor activity against normal cells (fibroblast); format: functional, Homo sapiens
[2] = The compound was tested for antitumor activity against human colon tumor H116 cells; format: functional
MC-38 = test: The compound was tested for antitumor activity against mouse tumor C38 cells; format: functional
[3] = The compound was tested for antitumor activity against mouse tumor M17/Adr cells; format: functional
[4] = The compound was tested for antitumor activity against L1210 cells; format: functional, Mus musculus
[5] = The compound was tested for antitumor activity against human tumor H15 cells; format: functional

Nc1ncnc2c1ncn2/C=C1/CC1CO (configuration not stated) gave an Activity [1] of 130, an Activity [2] of 160 and an Activity (MC-38) of 600. For the same compound, the Activity [3] was 460 and the Activity [4] was 570.
Nc1ncnc2c1ncn2/C=C1/C(CO)C1(F)F (configuration not stated) gave an Activity [1] of 500, an Activity [2] of 550 and an Activity [5] of 550. The Activity (MC-38) was 580, the Activity [3] was 590 and the Activity [4] was 660.
In the case of Nc1ncnc2c1ncn2/C=C1\C(CO)C1(F)F (configuration not stated), the Activity [1] is reported as 130, the Activity [2] is reported as 200 and the Activity [5] is reported as 300. The Activity (MC-38) was 470, the Activity [3] was 370 and the Activity [4] was 420.
